According to PubChem BioAssay AID1508610 (The Scripps Research Institute Molecular Screening Center, 2020):
Calls of active or inactive are those of the source. How the calls were made is not given here.

The compounds below were run against G-protein coupled receptor 151 (Homo sapiens) (UniProt Q8TDV0) (assay: GPR151 activator potency, dose response, cell-based (AID 1508610)). Conditions: cell-based GPR151 activation reporter.
Sequence of G-protein coupled receptor 151 (Homo sapiens) (Q8TDV0 whole entry, looked up): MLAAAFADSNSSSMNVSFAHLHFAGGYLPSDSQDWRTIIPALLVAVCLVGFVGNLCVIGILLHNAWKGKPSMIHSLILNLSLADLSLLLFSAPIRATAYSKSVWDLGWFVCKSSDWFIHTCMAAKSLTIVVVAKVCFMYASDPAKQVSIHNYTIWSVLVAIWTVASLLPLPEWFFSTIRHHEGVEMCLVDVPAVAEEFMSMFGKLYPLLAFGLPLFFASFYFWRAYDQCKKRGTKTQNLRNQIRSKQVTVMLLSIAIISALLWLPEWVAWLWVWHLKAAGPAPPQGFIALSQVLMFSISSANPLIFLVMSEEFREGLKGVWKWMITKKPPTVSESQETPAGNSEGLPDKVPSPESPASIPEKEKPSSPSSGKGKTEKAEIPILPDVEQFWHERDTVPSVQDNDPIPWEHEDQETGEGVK

Row | SMILES | EC50
1 | O=C1CS/C(=C\c2nc3ccccc3s2)N1 | > 31.6 µM (inactive)
2 | Cc1ccc(NC(=O)/C(=C/c2cccc([N+](=O)[O-])c2)NC(=O)c2cccs2)c(Br)c1 | > 18.7 µM (inactive)
3 | O=C(CCCOc1ccccc1)NNC(=O)c1ccccc1 | > 30.1 µM (inactive)
4 | COc1cccc(Nc2nc(Nc3cc(C)ccc3C)nc(N3CCOCC3)n2)c1 | > 26.2 µM (inactive)
5 | COc1ccc(-c2nnc(/C=C/c3cccs3)o2)cc1 | > 27.6 µM (inactive)
6 | CCOCC(=O)NC12CC3CC(CC(C3)C1)C2 | > 44.2 µM (inactive)
7 | Cc1ccc2nc(/C(C#N)=C\c3ccccc3OCC#N)[nH]c2c1 | > 28 µM (inactive)
8 | CCOc1ccc(C(=O)N2CCC(c3ncncc3-c3ccncc3)CC2)o1 | > 28 µM (inactive)
9 | COc1ccc(C(=O)Nc2nc(C)cs2)c(OC)n1 | > 28 µM (inactive)
10 | COC(=O)c1ccc(Nc2ncnc3c2cnn3-c2ccc(C)cc2C)cc1 | 0.00158 µM
11 | Cc1ccc(/C=N/NC(=O)Cc2cccn2C)s1 | > 28 µM (inactive)
12 | CC(C)(C)NS(=O)(=O)c1ccc(NC(=O)COc2ccc(Br)cc2)cc1 | > 28 µM (inactive)
13 | O=C(O)c1ccc2nc(-c3ccccc3)[nH]c2c1 | > 26.3 µM (inactive)
14 | O=c1oc2cc(O)ccc2cc1-c1ccccc1 | > 28.2 µM (inactive)
15 | CC(=O)c1c(C)[nH]c(C(=O)N2CCN(c3ccccc3)CC2)c1C | > 28 µM (inactive)
16 | Cc1ccc2nc(NC(=O)C3=COCCO3)sc2c1 | > 28.4 µM (inactive)
17 | CCN1CCN(Cc2ccc(NC(=O)Nc3ccccc3C)cc2)CC1 | > 28 µM (inactive)
18 | COc1ccc(-c2nc3ccccc3[nH]2)cc1 | > 35 µM (inactive)
19 | COc1cccc(/C=N/NC(=O)C(C)Nc2ccc(C)cc2)c1O (configuration not stated) | > 28 µM (inactive)
20 | CC(C)NC(=O)CSc1nnc(-c2cccnc2)n1CCc1ccccc1 | > 28 µM (inactive)
21 | O=C(O)c1ccc(/C=C2\SC(=S)N(CCS(=O)(=O)O)C2=O)cc1 | > 28.5 µM (inactive)
22 | CCN(CC)c1nc(SC)nc(Cl)c1Cc1ccc(OC(C)C)cc1 | > 25.2 µM (inactive)

Row | SMILES | EC50
23 | Oc1ccc(Nc2ncnc3ccc(I)cc23)cc1 | > 28 µM (inactive)
24 | COCCn1c(C)cc(C(=O)COC(=O)c2cccc(O)c2)c1C | > 30.4 µM (inactive)
25 | O=C(COc1ccc(Cl)cc1Cl)Nc1ncn[nH]1 | > 28 µM (inactive)
26 | CCOc1ccccc1NC(=O)N1CCC2(CC1)OCCO2 | > 28 µM (inactive)
27 | CCN(CC)C(=O)c1cn(CCC#N)nc1-c1ccc(OC)c([N+](=O)[O-])c1 | > 28 µM (inactive)
28 | CN1CCN(c2ccc(/C=C(\C#N)C(N)=O)cc2[N+](=O)[O-])CC1 | > 28 µM (inactive)
29 | COc1ncc(-c2cncc(-c3cccc(O)c3)n2)c(OC)n1 | > 28 µM (inactive)
30 | O=C(O)c1cccc(COc2cccc(Cl)c2)c1 | > 28 µM (inactive)
31 | CCC(NS(=O)(=O)c1ccc(Cl)c([N+](=O)[O-])c1)C12CC3CC(CC(C3)C1)C2 (configuration not stated) | > 26.9 µM (inactive)
32 | C[C@H](O)[C@H]1NC(=O)[C@@H]2C[C@H](NCc3cccc(F)c3)CN2C1=O | > 28 µM (inactive)
33 | CCC(C(=O)OC)n1cnc2scc(-c3cccc([N+](=O)[O-])c3)c2c1=O (configuration not stated) | > 28 µM (inactive)
34 | O=C(Nc1ccc(Oc2cccc(Oc3ccc(NC(=O)c4ccccc4F)cc3)c2)cc1)c1ccccc1F | > 14.8 µM (inactive)
35 | COc1ccc(/C=C/C(=O)Nc2ccccc2F)cc1 | > 30.5 µM (inactive)
36 | O=C1c2ccccc2C(Nc2ccc(Cl)cc2)N1c1cccnc1 (configuration not stated) | > 28 µM (inactive)
37 | COc1ccc(OCc2cc(C(=O)N(C)Cc3ccncn3)no2)c(Cl)c1 | > 28 µM (inactive)
38 | O=C(Nc1ccc(NC(=O)c2cccc3c(Br)cccc23)cc1)c1ccco1 | > 24.4 µM (inactive)
39 | CON(C)C(=O)c1ccc(OCc2ccnc(Cl)c2)cc1 | > 28 µM (inactive)
40 | CC(c1ccccc1)C1CC(=O)N(Cc2ccccc2)C1=O (configuration not stated) | > 32.4 µM (inactive)
41 | O=C(Nc1nc2ccccc2[nH]1)c1ccccc1Cl | > 28.9 µM (inactive)
42 | COc1ccc(-c2ccc(C(N)=O)s2)cc1 | > 28.1 µM (inactive)
43 | CCCNC(=O)c1ccc(-c2ccc(N3CCOCC3)nc2)s1 | > 28.1 µM (inactive)
44 | Cn1c(=O)oc2cc(S(=O)(=O)N3CCCC(C(=O)N4CCOCC4)C3)ccc21 (configuration not stated) | > 28 µM (inactive)

Row | SMILES | EC50
45 | O=C(O)CCC(NCC(O)Cn1c2ccccc2c2ccccc21)C(=O)O (configuration not stated) | > 28.7 µM (inactive)
46 | COc1ccc(Br)cc1C(=O)NCC1COc2ccccc2O1 (configuration not stated) | > 28 µM (inactive)
47 | COc1ccc(-c2ccc(C(=O)NCCc3ccc(O)cc3)s2)cc1 | > 27.7 µM (inactive)
48 | CC[C@@H](C(=O)C(C)[C@@H](O)[C@H](C)CCc1ccc(C)c(O)c1C(=O)O)C1OC(CC)(C2CC[C@](O)(CC)[C@H](C)O2)C[C@@H]1C (some centres not stated) | inactive
49 | CCOC(=O)C1CCC(CN(CC(C)C)S(=O)(=O)c2ccc([N+](=O)[O-])cc2)CC1 (configuration not stated) | > 23.7 µM (inactive)
50 | CCn1c(/C=C/C=C2\N(C)c3ccccc3C2(C)C)[n+](Cc2ccccc2)c2ccccc21 | 2.75 µM
51 | O=C1CCN(C(=O)c2ccc(-c3nc4ccccc4s3)s2)CC1 | > 29.5 µM (inactive)
52 | Cn1cc(CCC(=O)NC2CCN(Cc3ccccc3)CC2)c2ccccc21 | > 28 µM (inactive)
53 | Cc1nc2c(C(=O)NCc3ccccn3)cnn2c(C)c1Cc1cccc(Cl)c1 | > 29.5 µM (inactive)
54 | COc1cc(Nc2ccnc(Nc3ccc(N4CCOCC4)cc3)n2)cc(OC)c1OC | > 28.2 µM (inactive)
55 | COc1cccc(NC(=O)c2cc(C3CC3)[nH]n2)c1 | > 28 µM (inactive)
56 | C=CCN1C(=O)CC(C(=O)OC)C12CCN(C1CCN(C(=O)OCC)CC1)CC2 (configuration not stated) | > 28 µM (inactive)
57 | C/C=C/C(=O)N(CC)c1ccccc1C | > 28.9 µM (inactive)
58 | N#Cc1ccsc1NC(=O)/C=C/c1ccccc1 | > 28.6 µM (inactive)
59 | CCC(C)NC(=O)c1cc(=O)[nH]c2ccc(Br)cc12 (configuration not stated) | 0.867 µM
60 | COc1ccc(-c2ccc(C(=O)NCCO)s2)cn1 | > 27.9 µM (inactive)
61 | O=C(Nc1noc2ccccc12)c1ccc(F)cc1 | > 28 µM (inactive)
62 | Cc1cccc(-c2cnc(C)nc2C2CCCN(C(=O)CN(C)C)C2)c1 (configuration not stated) | > 28 µM (inactive)
63 | CC(NC(=O)c1ccco1)c1nnc2n1CCN(Cc1cccc(F)c1)CC2 (configuration not stated) | > 28 µM (inactive)
64 | COc1ccc2o/c(=N\NC(=O)c3ccccc3Nc3ccccc3)c(C(N)=O)cc2c1 | > 28 µM (inactive)
65 | CCN(CC)S(=O)(=O)c1ccc(C(=O)Nc2nnc(C(C)C)s2)cc1 | > 23.9 µM (inactive)
66 | COc1ccccc1C1c2c(oc3ccc(C)cc3c2=O)C(=O)N1CCN1CCOCC1 (configuration not stated) | 0.00152 µM

Row | SMILES | EC50
67 | COc1cc(S(=O)(=O)N2CCN(c3ccc(C)c(C)c3)CC2)ccc1F | > 28 µM (inactive)
68 | O=C(Cn1c2c(c(-c3ccccc3Cl)cc1=O)CCC2)NC1CCCC1 | > 28 µM (inactive)
69 | COc1ccc(CNC(=O)CCCn2cccc2)cc1 | > 28 µM (inactive)
70 | Cc1ccc2nc(NC(=O)C34CC5CC(C3)CC(n3cnc([N+](=O)[O-])n3)(C5)C4)sc2c1 | > 28 µM (inactive)
71 | O=C(O)c1ccc(COc2cccc(CO)c2)cc1 | > 28 µM (inactive)
72 | Cc1ccc(-c2csc3nnc(SCC(=O)NC(N)=O)n23)cc1 | > 29 µM (inactive)
73 | Cc1ccccc1-n1c(=O)cc(NCCCn2ccnc2)[nH]c1=O | > 28 µM (inactive)
74 | CC(C)C[C@@H]1NC(=O)[C@@H]2C[C@H](NC(=O)Nc3cccc(C(F)(F)F)c3)CN2C1=O | > 28 µM (inactive)
75 | Cc1n[nH]c(C)c1S(=O)(=O)NCc1ccc(F)cc1 | > 28 µM (inactive)
76 | COC(=O)c1c(NC(=O)c2cc(-c3ccc(CC(C)C)cc3)nc3ccccc23)sc(C)c1-c1ccccc1 | > 23.4 µM (inactive)
77 | Cn1c(=O)c2c(nc(N3CCCCCC3)n2CCc2ccccc2)n(C)c1=O | > 27.9 µM (inactive)
78 | N#C/C(=C\c1c(Oc2ccc(Cl)cc2Cl)nc2ccccn2c1=O)C(N)=O | > 27.9 µM (inactive)
79 | O=C(O)CC1c2ccccc2CCN1S(=O)(=O)c1ccc(Cl)cc1 (configuration not stated) | inactive
80 | CC[n+]1cc(C)ccc1/C=C/c1ccc(N(C)C)cc1 | > 29.7 µM (inactive)
81 | CCN(CC)C(=O)Cn1cnc2sc(C(=O)Nc3cc(C)ccc3OC)c(C)c2c1=O | > 25.7 µM (inactive)
82 | Cc1cc(Br)ccc1NC(=O)c1ccc(C#N)cc1F | > 28 µM (inactive)
83 | Cc1ccn(CCC(=O)NCC2Cc3cc(-c4cnccn4)cc(Cl)c3O2)n1 (configuration not stated) | > 28 µM (inactive)
84 | COc1cccc(/C=C/c2nc3ccccc3c(=O)[nH]2)c1O | > 32.3 µM (inactive)
85 | COc1ccc2[nH]c(C)c(CCNCc3ccc(OC(F)(F)F)cc3)c2c1 | > 21.6 µM (inactive)
86 | Cc1nc(/C=C/c2ccc(Cl)cc2)sc1C(=O)O | > 32 µM (inactive)
87 | COc1ccccc1Cn1c(=S)[nH]c2cc(C(=O)N3CCC(C(N)=O)(N4CCCCC4)CC3)ccc2c1=O | inactive
